Assay results reported in ChEMBL document CHEMBL2074200, “Reversal of P-glycoprotein-mediated MDR by 5,7,3',4',5'-pentamethoxyflavone and SAR” (Biochem Biophys Res Commun, 2004).

Molecular target: ATP-dependent translocase ABCB1 (Homo sapiens, UniProt P08183)
Experiment: TP_TRANSPORTER: increase in Rhodamine 123 intracellular accumulation in AML-2/D100 cells
Format: functional, cell-based

Chain of ATP-dependent translocase ABCB1 (P08183 whole entry): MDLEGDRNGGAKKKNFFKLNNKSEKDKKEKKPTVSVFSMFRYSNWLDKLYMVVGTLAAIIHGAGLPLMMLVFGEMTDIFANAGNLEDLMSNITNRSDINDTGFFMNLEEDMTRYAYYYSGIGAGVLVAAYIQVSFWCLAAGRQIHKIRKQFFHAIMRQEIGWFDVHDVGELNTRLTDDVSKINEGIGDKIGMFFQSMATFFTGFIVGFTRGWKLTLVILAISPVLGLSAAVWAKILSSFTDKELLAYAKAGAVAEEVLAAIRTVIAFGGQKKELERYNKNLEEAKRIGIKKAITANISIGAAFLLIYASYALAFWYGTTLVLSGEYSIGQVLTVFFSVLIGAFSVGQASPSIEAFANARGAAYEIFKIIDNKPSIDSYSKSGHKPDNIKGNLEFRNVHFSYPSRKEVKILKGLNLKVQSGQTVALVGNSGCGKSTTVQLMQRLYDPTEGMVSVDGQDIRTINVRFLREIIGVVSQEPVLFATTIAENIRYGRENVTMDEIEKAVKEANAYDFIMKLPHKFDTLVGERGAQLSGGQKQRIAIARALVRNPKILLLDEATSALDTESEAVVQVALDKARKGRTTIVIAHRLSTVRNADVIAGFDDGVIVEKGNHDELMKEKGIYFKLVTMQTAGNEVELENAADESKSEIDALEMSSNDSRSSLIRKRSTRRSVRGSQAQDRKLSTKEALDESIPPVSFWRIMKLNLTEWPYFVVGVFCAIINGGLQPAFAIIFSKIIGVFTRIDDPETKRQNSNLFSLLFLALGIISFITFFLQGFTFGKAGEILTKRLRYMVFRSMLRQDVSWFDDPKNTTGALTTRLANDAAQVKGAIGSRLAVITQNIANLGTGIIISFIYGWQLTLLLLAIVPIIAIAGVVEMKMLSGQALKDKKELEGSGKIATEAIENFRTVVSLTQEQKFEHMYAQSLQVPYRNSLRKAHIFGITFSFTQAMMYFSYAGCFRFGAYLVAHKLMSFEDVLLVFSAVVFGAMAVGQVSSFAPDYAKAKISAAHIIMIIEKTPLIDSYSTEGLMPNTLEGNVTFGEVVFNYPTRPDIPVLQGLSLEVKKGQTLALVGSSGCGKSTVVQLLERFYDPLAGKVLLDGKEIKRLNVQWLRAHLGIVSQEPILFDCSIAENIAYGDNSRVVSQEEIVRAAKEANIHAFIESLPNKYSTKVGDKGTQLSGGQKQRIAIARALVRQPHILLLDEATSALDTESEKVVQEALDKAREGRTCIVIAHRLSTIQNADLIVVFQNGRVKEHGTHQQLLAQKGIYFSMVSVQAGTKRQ

Compound: COc1cc(OC)c2c(=O)cc(-c3cc(OC)c(OC)c(OC)c3)oc2c1
- Activity: inhibitor [+]
